Test results: patent publication US12297203B2, “Pyrrolopyrimidine ITK inhibitors” (ACLARIS THERAPEUTICS, INC., priority 2018, dated 2025)

Columns and labels:
[1] = test system: JAK1/3 phosphorylation of its substrate, STAT5, at Y694; assay: JAK1/3 target modulation assay (IL-2 stimulated STAT5 Y694 phosphorylation in PBMC); format: cell-based; conditions: Homo sapiens, PBMC, Primary human peripheral blood mononuclear cells, IL-2 25 ng/mL; read-out: IL2-STAT5 Inh. IC50
Protocol: Target modulation was based upon the ability of a compound to inhibit JAK1/3 phosphorylation of its substrate, STAT5, at Y694. Primary human peripheral blood mononuclear cells were plated in V-bottom 96 well plates at 200,000 cells/well in 120 μL medium (RPMI-1640 with 10% fetal bovine serum, 10 mM HEPES buffer, 12.2 mM 2-mercaptoethanol, and supplemented with glutamine/penicillin/streptomycin). Compounds were added as 15 μL of 10× working stock solutions in medium with 1% DMSO (or medium with 1% DMSO for controls) and placed in a 37° C. incubator with gentle shaking for 1 hour. Stimulation was carried out using recombinant human IL-2 (R&D Systems #202-IL-050) to activate JAK1/3. IL-2 stock solution was diluted in media to 250 ng/mL and was added rapidly to all compound containing and stimulation only wells at 15 μL/well (final concentration=25 ng/mL). Wells designated ‘unstimulated’ received 15 μL of media only. The plate was placed back in a 37° C. incubator with gentle shaking for 5 minutes. After stimulation, the plates were immediately sealed with a plate seal, and cells pelleted at 400× g for 5 minutes. Media was removed using a multichannel aspirator, and 75 μL of cold Tris lysis buffer (MSD #R60TX-3) plus 1× Protease Inhibitor Solution (MSD #R70AA-1), 1× Phosphatase Inhibitor I (MSD #R70AA-1), and 1× Phosphatase Inhibitor II (MSD #R70AA-1) was added per well. Cells were incubated at 4° C. with gentle shaking for at least 30 minutes to allow for complete lysis. The plates were removed from 4° C., and 25 μL of lysate from each well was added to the corresponding well on the MSD plate. Samples were analyzed by either an MSD multiplex kit for Phospho-STAT5a,b/Total-STAT5a,b (MSD #K15163D) or an MSD single-plex kit for Phospho-STAT5a,b (MSD #K150IGD). The protocols for the respective kits were followed, and the plates were read on the MSD SECTOR S 600.

ITK = ITK (Homo sapiens (Human), UniProt Q08881); assay: ITK inhibitor binding potency (LanthaScreen competitive binding assay); conditions: read-out: ITK Inh. IC50
ITK, sequence (Q08881 whole entry): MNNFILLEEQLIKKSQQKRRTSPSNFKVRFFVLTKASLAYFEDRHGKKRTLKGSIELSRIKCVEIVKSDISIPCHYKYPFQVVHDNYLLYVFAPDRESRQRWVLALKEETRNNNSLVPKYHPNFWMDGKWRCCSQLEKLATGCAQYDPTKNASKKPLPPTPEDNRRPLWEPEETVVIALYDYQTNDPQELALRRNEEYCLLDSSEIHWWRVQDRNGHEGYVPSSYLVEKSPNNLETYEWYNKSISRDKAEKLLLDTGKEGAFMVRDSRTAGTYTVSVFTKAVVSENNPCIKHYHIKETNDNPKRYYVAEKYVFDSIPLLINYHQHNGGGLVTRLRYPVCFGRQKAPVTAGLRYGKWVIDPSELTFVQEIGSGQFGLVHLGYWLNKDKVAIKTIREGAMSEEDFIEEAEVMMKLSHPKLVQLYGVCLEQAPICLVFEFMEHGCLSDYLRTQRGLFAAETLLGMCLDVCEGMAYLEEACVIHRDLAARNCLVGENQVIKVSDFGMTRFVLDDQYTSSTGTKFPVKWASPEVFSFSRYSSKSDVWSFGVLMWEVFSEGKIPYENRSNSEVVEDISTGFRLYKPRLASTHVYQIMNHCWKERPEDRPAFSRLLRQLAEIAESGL
Text: The ability of candidate compounds to interact with ITK is quantitated by a competitive binding assay using the LanthaScreen technology developed by Life Technologies. This assay is based on the binding of a proprietary, Alexa Fluor® 647-labeled, ATP-competitive kinase inhibitor (kinase tracer-236) to the ITK expression construct in the presence of a Europium-conjugated antibody, resulting in a FRET (fluorescence resonance energy transfer) signal. Displacement of the kinase tracer by compound results in a lower emission ratio upon excitation of the Europium chelate. Candidate compounds are designed as potential irreversible inhibitors of ITK, capable of ligating to an active site cysteine residue resulting in time dependent covalent binding. The time dependent nature of irreversible inhibition is investigated by performing the binding assay with and without a pre-incubation of compound and ITK. […] The inhibitory potency of candidate compounds is measured in 20 mM HEPES pH 7.5, 10 mM MgCl2, 0.01% BSA, 0.0005% Tween-20, and 2% DMSO in the presence of 10 nM ITK, 2 nM Eu-anti-GST antibody, and 50 nM kinase tracer-236 using a 384-well plate format. Background signal is defined in the absence of ITK and uninhibited signal is defined in the presence of vehicle (2% DMSO) alone. Compounds were evaluated in an 11 point dose-response ranging from 20 uM to 0.34 nM. The binding assays are performed under two preincubation conditions to evaluate time dependence of inhibition. For the pre-incubation assay, ITK and Eu-anti-GST antibody are pre-incubated with compound or vehicle for two hours prior to the addition of kinase tracer. The non-preincubated assay is run under conditions where ITK and Eu-anti-GST antibody are added to a mixture of compound and kinase tracer. IC50 values of compounds are determined using a 4 parameter logistical fit of emission ratio as a function of the concentration of compound.

[2] = test system: ITK phosphorylation of its substrate, PLCγ1, at Y783; assay: ITK target modulation assay (PLCγ1 Y783 phosphorylation, anti-CD3 stimulated Jurkat T cells); format: cell-based; conditions: Homo sapiens, Jurkat, anti-CD3 Dynabeads stimulation, read-out: PLC-γ Inh. IC50
Protocol: Target modulation was based upon the ability of a compound to inhibit ITK phosphorylation of its substrate, PLCγ1, at Y783. Human Jurkat T cells (ATCC TIB-152) were plated in V-bottom 96 well plates at 400,000 cells/well in 80 μL medium (RPMI1640 with 10% heat inactivated serum and 55 μM 2-mercaptoethanol and supplemented with glutamine/penicillin/streptomycin). Compounds were added as 10 μL of 10× working stock solutions in medium with 1% DMSO (or medium with 1% DMSO for controls) and placed in a 37° C. incubator with gentle shaking for 1 hour. Stimulation was carried out using anti-CD3 Dynabeads (Invitrogen catalog #1151D) to activate the T cell receptor and mimic antigen presenting cells. Beads were washed and resuspended in medium at 1.84×10^8 beads/ml. Beads were added rapidly to all compound containing and stimulation only wells at 10 μL/well (bead:cell=2:1) with gentle mixing of the bead source between each addition. Wells designated ‘unstimulated’ received 10 μL of media only. The plate was immediately sealed with a plate seal and cells pelleted at 400× g for 4 minutes. Media was removed using a multichannel aspirator, 25 μL of cold hypotonic lysis buffer (VWR M334-100 ml) plus 1×HALT Protease Inhibitor Cocktail (ThermoFisher #78437), 1× Phosphatase Inhibitor Cocktail 2 (Sigma Aldrich #P5726), 1× Phosphatase Inhibitor Cocktail 3 (Sigma Aldrich #P0044) and 2 mM PMSF was added per well. Cells were incubated on ice for 30 minutes to swell the cells then lysed by pipetting 20 times using a multichannel pipet. The plates were then resealed and centrifuged for 5 minutes at 400× g to pellet the cellular debris. Two μL of the soluble component of each sample was spotted onto nitrocellulose and allowed to dry for 30 minutes. Nitrocellulose was wet in 1× Tris Buffer Saline (20 mM Tris pH7.5, 150 mM NaCl) then blocked in LiCOR Odyssey Blocking Buffer (TBS) (LiCOR #927-50000) for 1 hour at room temperature with rocking. Following blocking, nitrocellulose was incubated in LiCOR Odyssey Blocking Buffer (TBS) plus 0.2% Tween20 plus anti-phospho-PLCγ1 (Y783) antibody (CST #2821S) at 1:1000 and anti-PLCγ1 (Abcam #41433) at 1:5000 with gentle rocking overnight at 4° C. Nitrocellulose was then washed four times for 5 minutes each with TBS plus 0.1% Tween20 (TBST) then incubated in LiCOR Odyssey Blocking Buffer (TBS) plus 0.2% Tween20 plus secondary antibodies IRDye 800CW (LiCOR 926-32211) and IRDye 680RD (LiCOR 926-68070) both at 1:15,000 with gentle rocking at room temperature in the dark for 1 hour. Nitrocellulose was then washed four times for 5 minutes each with TBST at room temperature in the dark. A final rinse with TBS was done prior to imaging and quantifying using the LiCOR Odyssey Imager and software respectively.

JAK3 = JAK3 (Homo sapiens (Human), UniProt P52333); assay: JAK3 enzyme activity assay (Caliper mobility shift); format: biochemical; conditions: ATP at Km level; read-out: JAK3 Inh. IC50
JAK3, sequence (P52333 781-1124): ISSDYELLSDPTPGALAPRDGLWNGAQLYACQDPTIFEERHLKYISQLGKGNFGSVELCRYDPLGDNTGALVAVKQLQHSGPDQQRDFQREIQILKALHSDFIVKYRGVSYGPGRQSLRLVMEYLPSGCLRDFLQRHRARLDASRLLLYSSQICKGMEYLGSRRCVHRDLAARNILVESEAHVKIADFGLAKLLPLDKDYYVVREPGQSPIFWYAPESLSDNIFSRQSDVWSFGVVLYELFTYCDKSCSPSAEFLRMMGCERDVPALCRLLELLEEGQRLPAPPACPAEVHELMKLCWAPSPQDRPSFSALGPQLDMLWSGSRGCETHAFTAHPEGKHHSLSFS
Text: The ability of candidate compounds to interact with JAK3 is quantitated by a mobility shift assay using an LC3000 instrument developed by Caliper Life Sciences. This assay is based on mobility shift electrophoresis, in which fluorescently labelled product and fluorescently labelled substrate peaks are separated and detected independently. JAK3 product/substrate separation is obtained using the following instrument settings: Pressure=−1.4 psi, Downstream voltage=−2550V and Upstream voltage=−800V. The inhibitory potency of candidate compounds of JAK3 is measured in 20 mM HEPES pH 7.5, 10 mM MgCl2, 0.01% BSA, 0.0005% Tween-20, and 2% DMSO in the presence of 2.5 nM JAK3 (Life Technologies Catalog #PV3855), […] (Anaspec Catalog #AS-64106) and […] (Km level) using a 384-well plate format. Background signal is defined in the absence of enzyme and uninhibited signal is defined in the presence of vehicle (2% DMSO) alone. Compounds were evaluated in an 11 point dose-response ranging from […] to 0.34 nM. IC50 values of compounds are determined using a 4 parameter logistical fit of emission ratio as a function of the concentration of compound.

Row | Compound | IC50 [1] [nM] | IC50 (ITK) [nM] | IC50 [2] [nM] | IC50 (JAK3) [nM]
1 | C=CC(=O)N1CCC[C@@H](Nc2ncnc3[nH]cc(CC4CC4)c23)C1 [Example 18, (R)-1-(3-((5-(cyclopropylmethyl)-7H-pyrrolo[2,3-d]pyrimidin-4-yl)amino)piperidin-1-yl)prop-2-en-1-one] | 100 to 1000 | ≤ 10 | ≤ 100 | ≤ 10
2 | C=CC(=O)N1C[C@H](Nc2ncnc3[nH]cc(C4(C)CC4(F)F)c23)CC[C@@H]1C (stereo partly drawn) [Example 50, 1-((2S,5R)-5-((5-(2,2-difluoro-1-methylcyclopropyl)-7H-pyrrolo[2,3-d]pyrimidin-4-yl)amino)-2-methylpiperidin-1-yl)prop-2-en-1-one] | 100 to 1000 | ≤ 10 | ≤ 100 | ≤ 10
3 | C=CC(=O)N1C[C@@H](Nc2ncnc3[nH]cc([C@@H]4CC4(F)F)c23)CC[C@H]1CC (single isomer, unassigned) [Example 70] | 100 to 1000 | ≤ 10 | 100 to 1000 | ≤ 10
4 | C=CC(=O)N1C[C@@H](Nc2ncnc3[nH]cc(CC4CC4)c23)CC[C@H]1CC (single isomer, unassigned) [Example 39] | 100 to 1000 | ≤ 10 | 100 to 1000 | ≤ 10
5 | C=CC(=O)N1CCC[C@@H](Nc2ncnc3[nH]cc(C(=O)C4CCCC4)c23)C1 [Example 6, (R)-1-(3-((5-(cyclopentanecarbonyl)-7H-pyrrolo[2,3-d]pyrimidin-4-yl)amino)piperidin-1-yl)prop-2-en-1-one] | > 1000 | ≤ 10 | 100 to 1000 | 10 to 100
6 | C=CC(=O)N1CC(Nc2ncnc3[nH]cc(C(=O)C4CC4)c23)C1 [Example 7, 1-(3-((5-(cyclopropanecarbonyl)-7H-pyrrolo[2,3-d]pyrimidin-4-yl)amino)azetidin-1-yl)prop-2-en-1-one] | > 1000 | 10 to 100 | > 1000 | > 100
7 | C=CC(=O)N1C[C@H](Nc2ccnc3[nH]cc([C@@H]4CC4(F)F)c23)CC[C@@H]1C (single isomer, unassigned) [Example 74] | 100 to 1000 | ≤ 10 | 100 to 1000 | ≤ 10
8 | C=CC(=O)N1C[C@@H](Nc2ncnc3[nH]cc(CC4CC4)c23)CC[C@H]1C(C)C (single isomer, unassigned) [Example 42] | 100 to 1000 | ≤ 10 | 100 to 1000 | ≤ 10

Now from value to molecule:

Row | IC50 [1] [nM] | IC50 (ITK) [nM] | IC50 [2] [nM] | IC50 (JAK3) [nM] | Compound
9 | 100 to 1000 | ≤ 10 | 100 to 1000 | ≤ 10 | C=CC(=O)N1C[C@H](Nc2ncnc3[nH]cc([C@@H]4[C@@H](C)C4(F)F)c23)CC[C@@H]1C (single isomer, unassigned) [Example 52]
10 | > 1000 | 10 to 100 | 100 to 1000 | 10 to 100 | C=CC(=O)N1CC(Nc2ncnc3[nH]cc(CC4CC4)c23)CCC1C(C)C (stereo not shown) [Example 41, 1-(5-((5-(cyclopropylmethyl)-7H-pyrrolo[2,3-d]pyrimidin-4-yl)amino)-2-isopropylpiperidin-1-yl)prop-2-en-1-one]
11 | 100 to 1000 | ≤ 10 | ≤ 100 | ≤ 10 | C=CC(=O)N1CCC[C@@H](Nc2ncnc3[nH]cc(C4CC4(F)F)c23)C1 (stereo partly drawn) [Example 27, 1-((3R)-3-((5-(2,2-difluorocyclopropyl)-7H-pyrrolo[2,3-d]pyrimidin-4-yl)amino)piperidin-1-yl)prop-2-en-1-one]
12 | 100 to 1000 | ≤ 10 | ≤ 100 | ≤ 10 | C=CC(=O)N1C[C@H](Nc2ncnc3[nH]cc(C4CC4COC)c23)CC[C@@H]1C (mixture of isomers) [Example 44, 1-((2S,5R)-5-((5-(2-(methoxymethyl)cyclopropyl)-7H-pyrrolo[2,3-d]pyrimidin-4-yl)amino)-2-methylpiperidin-1-yl)prop-2-en-1-one]
13 | ≤ 100 | ≤ 10 | ≤ 100 | ≤ 10 | C=CC(=O)N1C[C@H](Nc2ncnc3[nH]cc(C4CCCC4)c23)CC[C@@H]1C [Example 30, 1-((2S,5R)-5-((5-cyclopentyl-7H-pyrrolo[2,3-d]pyrimidin-4-yl)amino)-2-methylpiperidin-1-yl)prop-2-en-1-one]
